The source of these data is US5348980A, “Enantiomers derived from (S)-2-amino-2-(3,4-dichlorobenzyl)-1-propanol, their use and method of preparation” (Institute de Recherche Jouveinal, priority 1992, dated 1994).

Counter-ions that a name gives are not always drawn.

What all share (type): in vivo, guinea pigs
The test system of test [1] is bronchoconstriction caused by 100 μmol/kg of histamine. Description: Histamine-induced bronchoconstriction test (Konzett and Rossler), i.v. administration. Particulars: for ED50: Cavia porcellus, iv. An excerpt: (§1) Furthermore, the antihistaminic properties were studied in guinea pigs by the bronchoconstriction test performed according to the method of H. Konzett and R. Rossler (Arch. Exp. Path. Pharmak.--Naunym Schmiedeberg - 195, 71-74, 1940).
(§2) The products of the invention were studied in this test after administration in solution or in suspension via the intravenous and intraduodenal routes, and also in powder form via the intranasal route.
(§3) Irrespective of the administration route, the preparation of the animals employed in the test consists in first anesthetizing male guinea pigs weighing 350 to 400 g by intraperitoneal (i.p.) injection of a sterile and isotonic solution containing 25% (w/v.) of ethyl carbamate on the basis of 6.0 ml/kg, and in then fitting the animals with a tracheal cannula to permit measurement of the pulmonary pressure, a cannula in the right jugular vein for the intravenous (i.v.) administration of solution, and also a cannula in the left carotid artery for qualitative observation of the blood pressure.
(§4) The animals are then connected to a pump (Harvard, ref. 50-1718) in order to maintain an artificial ventilation at a frequency of 60 insufflations per minute; the intratracheal pressure is recorded by an assembly comprising a transducer, an amplifier and a recorder (Gould, respective refs.: PLOEZ, 13-4615-50 and 8188-G4400-06).
(§5) Fitted in this way, the animals are left undisturbed for 10 minutes before the beginning of the actual experiment, which is carried out in different ways according to the administration route envisaged.
(§6) In base form, the test products are dissolved in an isotonic solution (0.9% NaCl) containing 10% (v/v) of Transcutol (R). Dilutions are performed by adding isotonic solution. In salt, in particular hydrochloride, form, the solutions are prepared in the isotonic solution.
(§7) The treatment of the animals consists of a series of administrations of histamine dihydrochloride solution on the basis of 100 μmol/kg before and after treatment with the solution of test product, which is carried out according to the following time schedule:
(§8) t=-20 minutes - histamine (100 μmol/kg)
(§9) t=-10 minutes - ditto control
(§10) t=0 - injection of the test product
(§11) t=+10 minutes - histamine (100 μmol/kg)
(§12) - Calculation and expression of the results:
(§13) For each administration route and for each time of administration of histamine, the activity of the products is expressed as the percentage change in amplitude of bronchoconstriction, calculated relative to that produced by the "control" administration of histamine which precedes the administration of the test product. The % change is calculated according to the formula: [formula] in which: Bc(tx) represents the amplitude of the bronchoconstriction in mm at time x,
(§14) Bo(tx) the amplitude of the base-line respiration in mm at time x,
(§15) Bc(to) and Bo(to) the corresponding amplitudes in mm on receipt of the "control" administration of histamine which precedes that of the test product.
(§16) The inhibitory activity of the test products on histamine-induced bronchoconstriction is expressed at different times of the studies as their ED50, which is the effective dose of product, expressed in μmol/kg, capable of inhibiting 50% of the histamine-induced bronchoconstriction at the time in question.
(§17) Failing this expression, the results are expressed as a % change at the time in question and for a given concentration of the test product. Under these conditions, a positive percentage corresponds to a potentiating effect on bronchoconstriction and, conversely, a negative percentage to an inhibitory effect.
(§18) Statistical analyses of the results were carried out by the Student t test. A value of p<0.05 is considered significant.
(§19) The compounds of the invention described in Examples 1 and 2 were employed in these tests. In addition, as a comparative product for the eutomer of Example 1, the racemic (R,S) compound corresponding to it, and which is described and prepared in Example 7 of U.S. Pat. No. 4,994,617, was employed. […]

For test [2], the system named is bronchoconstriction caused by 100 nmol/kg of histamine. Nature of the test: Histamine-induced bronchoconstriction test (Konzett and Rossler), intranasal-powder (In.P.) administration. As to conditions: Cavia porcellus, 5 min, t = 5 min, read-out: ED50 at t = 5 min, inhibition of histamine-induced bronchoconstriction. An excerpt: Furthermore, the antihistaminic properties were studied in guinea pigs by the bronchoconstriction test performed according to the method of H. Konzett and R. Rossler (Arch. Exp. Path. Pharmak.--Naunym Schmiedeberg - 195, 71-74, 1940). The products of the invention were studied in this test after administration in solution or in suspension via the intravenous and intraduodenal routes, and also in powder form via the intranasal route. Irrespective of the administration route, the preparation of the animals employed in the test consists in first anesthetizing male guinea pigs weighing 350 to 400 g by intraperitoneal (i.p.) injection of a sterile and isotonic solution containing 25% (w/v.) of ethyl carbamate on the basis of 6.0 ml/kg, and in then fitting the animals with a tracheal cannula to permit measurement of the pulmonary pressure, a cannula in the right jugular vein for the intravenous (i.v.) administration of solution, and also a cannula in the left carotid artery for qualitative observation of the blood pressure. The animals are then connected to a pump (Harvard, ref. 50-1718) in order to maintain an artificial ventilation at a frequency of 60 insufflations per minute; the intratracheal pressure is recorded by an assembly comprising a transducer, an amplifier and a recorder (Gould, respective refs.: PLOEZ, 13-4615-50 and 8188-[…]-06). Fitted in this way, the animals are left undisturbed for 10 minutes before the beginning of the actual experiment, which is carried out in different ways according to the administration route envisaged. c) intranasal-powder (In.p) administration The test product is administered via a nasal insufflation of a powder consisting of 20 mg of lactose loaded with the appropriate quantity of the test product. Before this insufflation, the artificial ventilation of the animal is momentarily stopped in order to facilitate the pulmonary penetration of the compound. […] Failing this expression, the results are expressed as a % change at the time in question and for a given concentration of the test product. […]

In test [3] the test system is bronchoconstriction caused by histamine. Nature of the test: Histamine-induced bronchoconstriction test (Konzett and Rossler), i.v. administration. As to conditions: 3.5 μmol/kg, t = 10', statistically nonsignificant.
From the text: as §1, §2, §3, §4, §5, §6, §7, §8, §9, §10, §11, §12, §13, §14, §15, §16, §17, §18, §19

In test [4] the test system is bronchoconstriction caused by 100 μmol/kg of histamine. Description: Histamine-induced bronchoconstriction test (Konzett and Rossler), intraduodenal (i.d.) administration. As to conditions: for ED50: Cavia porcellus.
From the text: as §1, §2, §3, §4, §5
In base form, the test products are suspended in a solution containing 1% w/v of carboxymethylcellulose (CMC), and, in salt form, they are dissolved in an isotonic solution before being administered via a cannula whose end is placed in the animal's duodenum.
The time schedule for the successive administrations of histamine via the i.v. route and that for the test solution via the i.d. route are identical to that described above in a).
as §12, §13, §14, §15, §16, §17, §18, §19

[5] abbreviates: 10 min, t = 10', read-out: ED50, inhibition of histamine-induced bronchoconstriction, t = 10'.
Setting [6] is: 20 min, t = 20', read-out: ED50, inhibition of histamine-induced bronchoconstriction, t = 20'.
Where [7] appears, read: 0.5 h, t = 30', read-out: ED50, inhibition of histamine-induced bronchoconstriction, t = 30'.
The mark [8] stands for this setting: 40 min, t = 40', read-out: ED50, inhibition of histamine-induced bronchoconstriction, t = 40'.
The mark [9] stands for this setting: 50 min, t = 50', read-out: ED50, inhibition of histamine-induced bronchoconstriction, t = 50'.
Where [10] appears, read: 1 h, t = 60', read-out: ED50, inhibition of histamine-induced bronchoconstriction, t = 60'.
The mark [11] stands for this setting: 3.5 μmol/kg, t = 20', statistically nonsignificant.
[12] abbreviates: 3.5 μmol/kg, t = 30', statistically nonsignificant.
Where [13] appears, read: 3.5 μmol/kg, t = 40', statistically nonsignificant.
[14] abbreviates: 3.5 μmol/kg, t = 50', statistically nonsignificant.
The mark [15] stands for this setting: 3.5 μmol/kg, t = 60', statistically nonsignificant.

As usually defined, the ED50 is the midpoint of the dose-response relation. Regarding `C=CCN(C)C(C)(CO)Cc1ccc(Cl)c(Cl)c1` (racemic) [Comparative racemate. HCl], the 50% effective dose (ED50) in test [1] (setting [5]) was determined as 3.72 µmol/kg; in test [1] (setting [6]) it was 2.11 µmol/kg; in test [1] (setting [7]) it was 1.88 µmol/kg; in test [1] (setting [8]), 2.07 µmol/kg; in test [1] (setting [9]) it was 2.34 µmol/kg; in test [1] (setting [10]), 2.22 µmol/kg.

As for `C=CCNC(C)(CO)Cc1ccc(Cl)c(Cl)c1` (racemic) [Comparative racemate], the ED50 in test [1] (setting [5]) was determined as 6.65 µmol/kg; in test [1] (setting [6]), 4.1 µmol/kg; in test [1] (setting [7]) it was 4.38 µmol/kg; in test [1] (setting [8]), 3.39 µmol/kg; in test [1] (setting [9]), 3.02 µmol/kg; in test [1] (setting [10]), 3.52 µmol/kg.

As to `CC1(C)Oc2ccc(C#N)cc2[C@H](N2CCCC2=O)[C@H]1O` (relative stereo) [Cromakalim (INN), reference compound], the median effective dose (ED50) in test [2] turned out to be 1.88 µmol/kg.

In the case of `C=CCN(C)[C@@](C)(CO)Cc1ccc(Cl)c(Cl)c1` [Comparative distomer, (R)-(-)-N-allyl-2-methylamino-2-(3,4-dichlorobenzyl)-1-propanol, reference compound], the “effect on histamine activity (in words)” value in test [1] is listed as “perceptibly though not significantly in statistical terms, a potentiating effect on histamine activity”; in test [4], “perceptibly though not significantly in statistical terms, a potentiating effect on histamine activity”. For the same compound, the “% potentiating effect on bronchoconstriction, t = 20'” value in test [1] (setting [11]) is “+18.4%”; in test [4] (setting [11]) it was “+14.6%”. For the same compound, the “% potentiating effect on bronchoconstriction, t = 30'” value in test [1] (setting [12]) is listed as “+28.2%”; in test [4] (setting [12]), “+32.4%”. Also, the “% potentiating effect on bronchoconstriction, t = 40'” value was “+35.4%” in test [1] (setting [13]) and “+44.5%” in test [4] (setting [13]). In addition, the “% potentiating effect on bronchoconstriction, t = 50'” value in test [1] (setting [14]) was “+36.7%”; in test [4] (setting [14]), “+35.6%”. The entries for the “% potentiating effect on bronchoconstriction, t = 60'” value in test [1] (setting [15]) and in test [4] (setting [15]) were “+41.1%” and “+30.0%”, respectively. Further, the “% potentiating effect on bronchoconstriction, t = 10'” value is listed as “+6.3%” in test [3] and “+5.8%” in test [4] (3.5 μmol/kg, t = 10', statistically nonsignificant).

On to `C=CCN[C@](C)(CO)Cc1ccc(Cl)c(Cl)c1` [Example 1, (S)-(-)-N-allyl-2-amino-2-(3,4-dichlorobenzyl)-1-propanol], for which the ED50 was found to be 4.89 µmol/kg in test [1] (setting [5]); 2.88 µmol/kg in test [1] (setting [6]); 2.54 µmol/kg in test [1] (setting [7]); 2.58 µmol/kg in test [1] (setting [8]); 3.17 µmol/kg in test [1] (setting [9]); 3.55 µmol/kg in test [1] (setting [10]). Moreover, the ED50 in test [4] (setting [6]) is 1 µmol/kg; in test [4] (setting [7]), 0.78 µmol/kg; in test [4] (setting [8]) it was 0.69 µmol/kg; in test [4] (setting [9]), 1.28 µmol/kg; in test [4] (setting [10]) it was 2.17 µmol/kg.

`O=C1NCC2(CCN(CCc3ccccc3)CC2)O1` [Fenspiride (INN). HCl]: the ED50 in test [1] (setting [5]) stood at 4.25 µmol/kg; in test [1] (setting [6]) it was 4.99 µmol/kg; in test [1] (setting [7]), 6.26 µmol/kg; in test [1] (setting [8]), 8.9 µmol/kg; in test [1] (setting [9]), 8.01 µmol/kg; in test [1] (setting [10]) it was 11 µmol/kg.
